For series [1] the following is noted: amide bond, 13-membered ring, DMF.
For series [2], the target named is T1, CFTR (Homo sapiens, UniProt P13569). The experiment in a line: Membrane potential dye, Enteroid Assay B. Type of series: cell-based. The note with it: for Ent. B Max Activity: chloride transport as % of triple combination control (Enteroid Assay B); for EC50: read-out: Ent. B EC50. The method, boiled down:
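Human intestinal enteroids were treated with compound in maintenance medium for 18-24 h at 37° C, then loaded with methyl oxonol membrane-potential dye (25 min, room temperature). Chloride transport was triggered in chloride-free buffer with 10 μM forskolin, 100 μM IBMX and 300 nM Compound III, fluorescence read 15 min; expressed as % of triple-combination control.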

Series [3] has as its target T1, CFTR. The experiment in a line: Membrane potential dye, Enteroid Assay A. The following applies: for Ent. A Max Activity: chloride transport as % of triple combination control (Enteroid Assay A); for EC50: human enteroid cells, 18-24 hours, acute 10 μM forskolin and 300 nM ivacaftor, read-out: Ent. A EC50. Format: cell-based. The method, boiled down: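 Human intestinal enteroids incubated 18-24 h at 37 °C with test compound, then loaded with 20 μM methyl oxonol (with CaCC inhibitors). Chloride transport triggered in chloride-free buffer with 10 μM forskolin, 100 μM IBMX, 300 nM Compound III; fluorescence read 15 min, expressed as % of a triple-combination corrector/potentiator control.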

[4] abbreviates: Table 8, human enteroid cells, 18-24 hours, acute 10 μM forskolin and 300 nM ivacaftor.

Where two headings read alike, the source gives them in different places. Some results are limits rather than exact numbers.

The results in this text go back to patent publication US20240150377A1, “MODULATORS OF CYSTIC FIBROSIS TRANSMEMBRANE CONDUCTANCE REGULATOR” (VERTEX PHARMACEUTICALS INCORPORATED, priority 2020, published 2024).

T1 sequence (P13569 with tags, fused parts or gaps DEL508-508): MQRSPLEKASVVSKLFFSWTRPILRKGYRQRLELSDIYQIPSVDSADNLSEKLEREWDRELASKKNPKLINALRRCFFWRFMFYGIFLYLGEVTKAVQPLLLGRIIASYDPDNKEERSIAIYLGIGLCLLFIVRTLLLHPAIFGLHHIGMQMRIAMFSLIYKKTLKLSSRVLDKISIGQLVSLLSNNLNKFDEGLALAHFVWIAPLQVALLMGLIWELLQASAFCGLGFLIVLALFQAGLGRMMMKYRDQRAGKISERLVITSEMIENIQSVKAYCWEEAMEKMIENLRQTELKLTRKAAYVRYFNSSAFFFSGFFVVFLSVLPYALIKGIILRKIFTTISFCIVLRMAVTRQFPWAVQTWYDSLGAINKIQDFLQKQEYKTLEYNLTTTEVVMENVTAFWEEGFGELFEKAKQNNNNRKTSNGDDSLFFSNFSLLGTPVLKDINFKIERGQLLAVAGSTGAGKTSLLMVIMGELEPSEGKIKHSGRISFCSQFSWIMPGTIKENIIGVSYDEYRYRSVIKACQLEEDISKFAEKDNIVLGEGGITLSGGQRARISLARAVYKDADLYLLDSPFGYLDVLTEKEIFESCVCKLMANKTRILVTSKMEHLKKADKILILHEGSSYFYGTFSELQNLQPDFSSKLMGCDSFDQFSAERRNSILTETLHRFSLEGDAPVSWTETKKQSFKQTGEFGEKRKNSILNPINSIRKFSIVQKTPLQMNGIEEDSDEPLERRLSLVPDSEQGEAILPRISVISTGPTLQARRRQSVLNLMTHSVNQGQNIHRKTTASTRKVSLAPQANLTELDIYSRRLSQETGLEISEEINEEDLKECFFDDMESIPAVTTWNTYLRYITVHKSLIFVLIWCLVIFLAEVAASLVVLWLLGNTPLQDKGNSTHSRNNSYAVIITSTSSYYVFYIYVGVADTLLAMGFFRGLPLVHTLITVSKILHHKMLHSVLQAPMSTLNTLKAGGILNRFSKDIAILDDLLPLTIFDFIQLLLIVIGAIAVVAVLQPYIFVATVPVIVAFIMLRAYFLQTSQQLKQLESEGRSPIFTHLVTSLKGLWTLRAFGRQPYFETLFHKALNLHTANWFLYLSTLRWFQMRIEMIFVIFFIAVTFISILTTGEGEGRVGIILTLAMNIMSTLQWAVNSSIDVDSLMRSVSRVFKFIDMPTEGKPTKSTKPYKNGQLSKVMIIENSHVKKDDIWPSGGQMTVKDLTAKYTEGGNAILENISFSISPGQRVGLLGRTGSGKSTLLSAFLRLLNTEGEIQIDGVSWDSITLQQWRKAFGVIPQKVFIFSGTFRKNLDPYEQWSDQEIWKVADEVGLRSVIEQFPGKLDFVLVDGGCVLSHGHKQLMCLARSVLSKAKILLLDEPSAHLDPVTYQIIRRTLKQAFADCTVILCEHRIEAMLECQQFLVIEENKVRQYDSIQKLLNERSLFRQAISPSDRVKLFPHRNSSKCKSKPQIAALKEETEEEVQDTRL

For `Cc1cccc(C)c1-c1cc2nc(n1)NS(=O)(=O)c1cccc(c1)C(=O)N(Cc1ncccn1)[C@H](CC(C)(C)C)CO2` [Compound 113, (11R)-6-(2,6-Dimethylphenyl)-11-(2,2-dimethylpropyl)-12-[(pyrimidin-2-yl)methyl]-9-oxa-2λ^6-thia-3,5,12,19-tetraazatricyclo[12.3.1.14,8]nonadeca-1(17),4(19),5,7,14(18),15-hexaene-2,2,13-trione], in series [1] (from Cc1cccc(C)c1-c1cc(OC[C@@H](CC(C)(C)C)NCc2ncccn2)nc(NS(=O)(=O)c2cccc(C(=O)O)c2)n1, COMU/DIEA, 28.1 mM, 25.0 °C, 6.0 h), the ring closure, yield after HPLC amounted to 33%. The “Ent. B Max Activity” value in series [2] (Table 8) is “+++ (+++ is >60%)”. The EC50 – broadly, the concentration that produces a half-maximal response – in series [2] (setting [4]) was less than 1 µM.
Compound `Cc1cccc(C)c1-c1cc2nc(n1)NS(=O)(=O)c1cccc(n1)C(=O)N(Cc1ncccn1)[C@H](CC(C)(C)C)CO2` [Compound 75, (11R)-6-(2,6-dimethylphenyl)-11-(2,2-dimethylpropyl)-12-[(pyrimidin-2-yl)methyl]-9-oxa-2λ^6-thia-3,5,12,18,19-pentaazatricyclo[12.3.1.14,8]nonadeca-1(18),4(19),5,7,14,16-hexaene-2,2,13-trione] came in with a ring closure, yield after HPLC in series [1] (from Cc1cccc(C)c1-c1cc(OC[C@@H](CC(C)(C)C)NCc2ncccn2)nc(NS(=O)(=O)c2cccc(C(=O)O)n2)n1, HATU/DIEA, 30.5 mM, 25.0 °C, 0.5 h) of 46%. The “Ent. B Max Activity” value in series [2] (Table 8) is recorded as “+++ (+++ is >60%)”. Also, the EC50 in series [2] (setting [4]) is less than 1 µM.
`Cc1cccc(C)c1-c1cc2nc(n1)NS(=O)(=O)c1cccc(c1)C(=O)N(C)CC(c1ccc(C(C)(C)C)cc1)O2` (racemic) [Compound 10, 10-(4-tert-butylphenyl)-6-(2,6-dimethylphenyl)-12-methyl-2,2-dioxo-9-oxa-2λ^6-thia-3,5,12,19-tetrazatricyclo[12.3.1.14,8]nonadeca-1(18),4(19),5,7,14,16-hexaen-13-one]: in series [1] (from CNCC(Oc1cc(-c2c(C)cccc2C)nc(NS(=O)(=O)c2cccc(C(=O)O)c2)n1)c1ccc(C(C)(C)C)cc1, HATU/DIEA, 15.4 mM, 25.0 °C, 0.25 h, 2 steps), the ring closure, yield after HPLC was found to be 19%. Further, in series [3] (Table 6), the “Ent. A Max Activity” value is “+++ (+++ is >60%)” and the EC50 was less than 1 µM.
In the case of `COC(=O)c1ccc(CCN2C(=O)c3cccc(c3)S(=O)(=O)Nc3nc(cc(-c4c(C)cccc4C)n3)OC[C@H]2CC(C)(C)C)cc1` [Compound 1081], the ring closure, yield after HPLC in series [1] (from COC(=O)c1ccc(CCN[C@@H](COc2cc(-c3c(C)cccc3C)nc(NS(=O)(=O)c3cccc(C(=O)O)c3)n2)CC(C)(C)C)cc1, HATU/DIEA, 25.0 °C, 16.0 h, 2 steps) is 23%. For the same compound, in series [2] (Table 9), the “Ent. B Max Activity (%)” value was “+++ (+++ is >600%)” and the EC50 is less than 1 µM.
The compound `Cc1cccc(C)c1-c1cc2nc(n1)NS(=O)(=O)c1cccc(c1)C(=O)N(C)CC(c1ccc(C(C)(C)C)cn1)O2` (stereo not drawn) [Compound 101, 10-(5-tert-butyl-2-pyridyl)-6-(2,6-dimethylphenyl)-12-methyl-2,2-dioxo-9-oxa-2λ^6-thia-3,5,12,19-tetrazatricyclo[12.3.1.14,8]nonadeca-1(18),4(19),5,7,14,16-hexaen-13-one] showed a ring closure, yield after HPLC in series [1] (from CNCC(Oc1cc(-c2c(C)cccc2C)nc(NS(=O)(=O)c2cccc(C(=O)O)c2)n1)c1ccc(C(C)(C)C)cn1, HATU/DIEA, 10.5 mM, 25.0 °C, 0.083 h, 2 steps) of 55%. Besides, in series [3] (Table 6), the “Ent. A Max Activity” value is recorded as “+++ (+++ is >60%)” and the EC50 was less than 1 µM.
In the case of `Cc1cccc(C)c1-c1cc2nc(n1)NS(=O)(=O)c1cccc(c1)C(=O)N(CCC(C)(C)C)[C@H](CC(C)(C)C)CO2` [Compound 138, (11R)-12-(3,3-Dimethylbutyl)-6-(2,6-dimethylphenyl)-11-(2,2-dimethylpropyl)-2,2-dioxo-9-oxa-2λ^6-thia-3,5,12,19-tetrazatricyclo[12.3.1.14,8]nonadeca-1(18),4(19),5,7,14,16-hexaen-13-one], the ring closure, yield after HPLC in series [1] (from Cc1cccc(C)c1-c1cc(OC[C@@H](CC(C)(C)C)NCCC(C)(C)C)nc(NS(=O)(=O)c2cccc(C(=O)O)c2)n1, HATU/DIEA, 8.4 mM, 2.0 h) worked out at 39%. Besides, in series [3] (Table 6), the “Ent. A Max Activity” value was “+++ (+++ is >60%)” and the EC50 was less than 1 µM.
In series [1] (from Cc1cccc(C)c1-c1cc(OC[C@@H](CC(C)(C)C)NCc2cnc(N)nc2)nc(NS(=O)(=O)c2cccc(C(=O)O)c2)n1, COMU/DIEA, 29.3 mM, 5.0 h), `Cc1cccc(C)c1-c1cc2nc(n1)NS(=O)(=O)c1cccc(c1)C(=O)N(Cc1cnc(N)nc1)[C@H](CC(C)(C)C)CO2` [Compound 136, (11R)-12-[(2-Aminopyrimidin-5-yl)methyl]-6-(2,6-dimethylphenyl)-11-(2,2-dimethylpropyl)-9-oxa-2λ^6-thia-3,5,12,19-tetraazatricyclo[12.3.1.14,8]nonadeca-1(18),4,6,8(19),14,16-hexaene-2,2,13-trione] had a ring closure, yield after HPLC of 33%. Further, the “Ent. B Max Activity” value in series [2] (Table 8) is reported as “+++ (+++ is >60%)”. For the same compound, the EC50 in series [2] (setting [4]) is less than 1 µM.
As to `Cc1cccc(C)c1-c1cc2nc(n1)NS(=O)(=O)c1cccc(c1)C(=O)N(Cc1cn(C)nc1C(C)(C)C)[C@H](CC(C)C)CO2` [Compound 83, (11R)-12-[(3-tert-Butyl-1-methyl-pyrazol-4-yl)methyl]-6-(2,6-dimethylphenyl)-11-isobutyl-2,2-dioxo-9-oxa-2λ^6-thia-3,5,12,19-tetrazatricyclo[12.3.1.14,8]nonadeca-1(18),4(19),5,7,14,16-hexaen-13-one], the ring closure, yield after HPLC in series [1] (from Cc1cccc(C)c1-c1cc(OC[C@@H](CC(C)C)NCc2cn(C)nc2C(C)(C)C)nc(NS(=O)(=O)c2cccc(C(=O)O)c2)n1, HATU/DIEA, 20.4 mM, 25.0 °C, 18.0 h) stood at 32%. For the same compound, in series [3] (Table 7), the “Ent. A Max Activity” value is “+++ (+++ is >60%)” and the EC50 was less than 1 µM.
In series [1] (from Cc1cccc(C)c1-c1cc(OC[C@@H](CC(C)(C)C)NCc2ccc(N3CCOCC3)cn2)nc(NS(=O)(=O)c2cccc(C(=O)O)c2)n1, CDMT/NMM, 16.9 mM, 25.0 °C, 2.33 h, 2 steps), `Cc1cccc(C)c1-c1cc2nc(n1)NS(=O)(=O)c1cccc(c1)C(=O)N(Cc1ccc(N3CCOCC3)cn1)[C@H](CC(C)(C)C)CO2` [Compound 48, (11R)-6-(2,6-Dimethylphenyl)-11-(2,2-dimethylpropyl)-12-[(5-morpholino-2-pyridyl)methyl]-2,2-dioxo-9-oxa-2λ^6-thia-3,5,12,19-tetrazatricyclo[12.3.1.14,8]nonadeca-1(18),4(19),5,7,14,16-hexaen-13-one] showed a ring closure, yield after HPLC of 22%. In addition, in series [2] (Table 9), the “Ent. B Max Activity (%)” value was “+++ (+++ is >600%)” and the EC50 was less than 1 µM.
On to `Cc1cccc(C)c1-c1cc2nc(n1)NS(=O)(=O)c1cccc(c1)C(=O)N(CCC(C)(C)C)CC(c1ccc(C(C)(C)C)cc1)O2` (stereo not drawn) [Compound 14, 10-(4-tert-butylphenyl)-12-(3,3-dimethylbutyl)-6-(2,6-dimethylphenyl)-2,2-dioxo-9-oxa-2λ^6-thia-3,5,12,19-tetrazatricyclo[12.3.1.14,8]nonadeca-1(18),4(19),5,7,14,16-hexaen-13-one], for which the ring closure, yield after HPLC in series [1] (from Cc1cccc(C)c1-c1cc(OC(CNCCC(C)(C)C)c2ccc(C(C)(C)C)cc2)nc(NS(=O)(=O)c2cccc(C(=O)O)c2)n1, HATU/TEA, 0.42 h, 2 steps) came out at 6%. Moreover, in series [3] (Table 6), the “Ent. A Max Activity” value is listed as “++ (++ is 30-60%)” and the EC50 was less than 1 µM.
`Cc1cccc(C)c1-c1cc2nc(n1)NS(=O)(=O)c1cccc(c1)C(=O)N(Cc1cccnn1)[C@H](CC(C)(C)C)CO2` [Compound 135, (11R)-6-(2,6-dimethylphenyl)-11-(2,2-dimethylpropyl)-12-[(pyridazin-3-yl)methyl]-9-oxa-2λ^6-thia-3,5,12,19-tetraazatricyclo[12.3.1.14,8]nonadeca-1(18),4,6,8(19),14,16-hexaene-2,2,13-trione] gave a ring closure, yield after HPLC in series [1] (from Cc1cccc(C)c1-c1cc(OC[C@@H](CC(C)(C)C)NCc2cccnn2)nc(NS(=O)(=O)c2cccc(C(=O)O)c2)n1, COMU/DIEA, 40.7 mM, 16.0 h) of 22%. In addition, the “Ent. B Max Activity” value in series [2] (Table 8) is “+++ (+++ is >60%)”. For the same compound, the EC50 in series [2] (setting [4]) was less than 1 µM.
Compound `Cc1cccc(C)c1-c1cc2nc(n1)NS(=O)(=O)c1cccc(c1)C(=O)N(CCC1CCOCC1)C(CCC1(C(F)(F)F)CC1)CO2` (stereo not drawn) [Compound 74, 6-(2,6-dimethylphenyl)-2,2-dioxo-12-(2-tetrahydropyran-4-ylethyl)-11-[2-[1-(trifluoromethyl)cyclopropyl]ethyl]-9-oxa-2λ^6-thia-3,5,12,19-tetrazatricyclo[12.3.1.14,8]nonadeca-1(18),4(19),5,7,14,16-hexaen-13-one] registered a ring closure, yield after HPLC in series [1] (from Cc1cccc(C)c1-c1cc(OCC(CCC2(C(F)(F)F)CC2)NCCC2CCOCC2)nc(NS(=O)(=O)c2cccc(C(=O)O)c2)n1, HATU/DIEA, 24.1 mM, 16.0 h) of 23%. In addition, in series [3] (Table 6), the “Ent. A Max Activity” value is on record as “+++ (+++ is >60%)” and the EC50 was less than 1 µM.
